In patent publication US20240299299A1, “COMPOSITIONS AND METHODS FOR INCREASING THE EFFICACY OF IMMUNOTHERAPIES AND VACCINES” (The Regents of the University of Michigan, priority 2021, published 2024):

Assays:
[1] = system: CT26 colon carcinoma cells; test: CT26 tumor model, metabolite monotherapy i.p. without α-PD-1; assay type: in vivo, BALB/c mice; conditions: monotherapy without α-PD-1 IgG; i.p. DHB 2.4 mg or 3-methylhistidine 3 mg per dose
Description: (§1) FIG. 7: a-d) In vitro cell viability of DHB at various concentrations in activated T cells, MC38, B16F10, and CT26 tumor cells. e) BALB/c mice were s.c. inoculated with 1.5×10^5 CT26 colon carcinoma cells. DHB (2.4 mg per dose) or 3-methylhistidine (3 mg per dose) was i.p. injected 3 times every 4 days, 100 μg α-PD-1 was i.p. injected on days 11, 15, and 20. Shown is the average tumor growth. Data represent the mean±s.e.m. (n=4-5).

OT-I CD8+ T cells [2] = test: Tcm differentiation of isolated OT-I CD8+ T cells activated with α-CD3/α-CD28 in the absence of dendritic cells; assay type: cell-based, mice; conditions: α-CD3/α-CD28 activation; 3-methylhistidine 3 mM, DHB 100 μM; day 7
Description: (§2) FIG. 2: a) OT-I CD8+ T cells were cultured with different metabolites in vitro as indicated, b,c) shown is the frequency of CD44^+CD62L^+ Tcm CD8+ T cells on day 8. d) OT-I CD8+ T cells were activated with α-CD3/α-CD28 antibodies in presence of metabolites as indicated and shown is the Tcm CD8+ T cells on day 7. Data represent the mean±s.e.m. (n=5).
Splenocytes from OT-I mice were obtained aseptically. The cells were cultured in 96-well plates (1×10^5 cells per well). For Tcm differentiation study, cells were activated with SIINFEKL peptide (4×10^−9M) in the presence of various metabolites (arginine: 3 mM; 3-methylhistidine: 3 mM; N-acetylneuraminate: 100 μM; disodium sebacate: 100 μM; DHB: 100 μM; pantothenate: 100 μM; γ-aminobutyric acid: 100 μM; glycerol: 100 μM; AICAR: 100 μM, sodium ferulate: 100 μM) for 3 days. Then cells were washed three times with T-cell medium and further cultured with IL-2 (10 ng ml^−1; PeproTech) in the presence of metabolites for 5 days. The cells were then washed twice and re-activated with SIINFEKL peptide (10 μM) for 2 h. The suspension cells were collected, blocked with CD16/32 antibody and stained with the fixable viability dye eFluor 450, FITC-CD44 rat anti-human/mouse and PE-CD62L monoclonal antibody. […] Tcf1^+CD8^+, CD44^+CD62L^+CD8^+ and survival (stained with Annexin V-APC and PI) T cells were detected via flow cytometry.

[3] = system: activated T cells, MC38, B16F10, and CT26 tumor cells; test: In vitro cell viability of DHB at various concentrations; assay type: cell-based; conditions: concentration below 1 mM
Description: as §1

[4] = system: CT26 colon carcinoma cells; test: CT26 tumor model, intratumoral metabolites plus α-PD-1; assay type: in vivo, BALB/c mice
Description: FIG. 5: a) Therapeutic treatment regimen. BALB/c mice were s.c. inoculated with 1.5×10^5 CT26 colon carcinoma cells. The candidate metabolites were injected intratumorally every other day, 100 μg α-PD-1 was i.p. injected on days 9, 12, 16 and 20. b) Average tumor growth, c) individual tumor growth, and d) overall Kaplan-Meier survival are shown. Data represent the mean±s.e.m. (n=5).
(§3) Animals were cared for following the federal, state and local guidelines. All work conducted on animals was in accordance with and approved by the Institutional Animal Care and Use Committee (IACUC). Female (6-8 weeks old) BALB/c mice from Jackson Laboratory were inoculated with 1.5×10^5 CT26 cells per mouse on the right flank by s.c. injection. Tumor-bearing mice were randomly assigned to different treatment groups. For intratumoral injection study, the mice were injected with 3-methylhistidine (dose: 1 mg per mouse), sodium hippurate (dose: 1 mg per mouse), disodium sebacate (dose: 1 mg per mouse), sodium ferulate (dose: 1 mg per mouse), or DHB (dose: 0.5 mg per mouse) in 40 μL PBS buffer for every other day. The mice were i.p. injected with α-PD-1 antibody (100 μg per dose; clone RMP1-14, Bioxcell) on days 9, 12, 16 and 20 post tumor inoculation. For oral administration study, the mice were injected with 3-methylhistidine (dose: 3 mg per mouse), sodium hippurate (dose: 3 mg per mouse), disodium sebacate (dose: 3 mg per mouse), sodium ferulate (dose: 3 mg per mouse), or DHB (dose: 2.4 mg per mouse) in PBS buffer for 3 times every 4 days. α-PD-1 was injected on days 10, 14, 18 and 22. The tumor size was measured, and the tumor volume was calculated as ½×(length×width^2). Tumor-bearing mice were euthanized when the tumor size reached 1.5 cm in any diameter or when the animals became moribund with severe weight loss (>20%) or tumor ulceration.

[5] = system: CT26 colon carcinoma cells; test: CT26 tumor model, orally administered metabolites plus α-PD-1; assay type: in vivo, BALB/c mice; conditions: oral gavage 3 times every 4 days (DHB 2.4 mg, 3-methylhistidine 3 mg per mouse) plus α-PD-1 i.p.
Description: FIG. 6: a) Therapeutic treatment regimen. BALB/c mice were s.c. inoculated with 1.5×10^5 CT26 colon carcinoma cells. The candidate agents were orally administrated 3 times every 4 days, 100 μg α-PD-1 was injected i.p. on days 10, 14, 18 and 22. b) Average tumor growth, c) individual tumor growth. Data represent the mean±s.e.m. (n=4-5).
as §3, with “For oral administration study, the mice were injected with 3-methylhistidine (dose: 3 mg per mouse), sodium hippurate (dose: 3 mg per mouse), disodium sebacate (dose: 3 mg per mouse), sodium ferulate (dose: 3 mg per mouse), or DHB (dose: 2.4 mg per mouse) in PBS buffer for 3 times every 4 days. α-PD-1 was injected on days 10, 14, 18 and 22.” left out, “Tumor-bearing mice were euthanized when the tumor size reached 1.5 cm in any diameter or when the animals became moribund with severe weight loss (>20%) or tumor ulceration.” left out

OT-I CD8+ T cells [6] = test: In vitro central memory (Tcm) differentiation of OT-I CD8+ T cells activated with SIINFEKL peptide and IL-2 with metabolites; assay type: cell-based, mice; conditions: day 8; metabolite-supplemented medium (arginine 3 mM, 3-methylhistidine 3 mM, DHB 100 μM, sodium ferulate 100 μM)
Description: as §2
(§4) Splenocytes from OT-I mice were obtained aseptically. The cells were cultured in 96-well plates (1×10^5 cells per well). For Tcm differentiation study, cells were activated with SIINFEKL peptide (4×10^−9M) in the presence of various metabolites (arginine: 3 mM; 3-methylhistidine: 3 mM; N-acetylneuraminate: 100 μM; disodium sebacate: 100 μM; DHB: 100 μM; pantothenate: 100 μM; γ-aminobutyric acid: 100 μM; glycerol: 100 μM; AICAR: 100 μM, sodium ferulate: 100 μM) for 3 days. Then cells were washed three times with T-cell medium and further cultured with IL-2 (10 ng ml^−1; PeproTech) in the presence of metabolites for 5 days. The cells were then washed twice and re-activated with SIINFEKL peptide (10 μM) for 2 h. The suspension cells were collected, blocked with CD16/32 antibody and stained with the fixable viability dye eFluor 450, FITC-CD44 rat anti-human/mouse and PE-CD62L monoclonal antibody. To test if the central memory CD8+ T cells differentiation is dependent on dendritic cells, CD8 T cells isolated from the spleen in OT-I mice were incubated in the 96-well plate, which was precoated with anti-hamster IgG antibody. […] (1 μg mL^−1) and IL-2 (100 U mL^−1) were added into each well in the presence of 3-methylhistidine (3 mM), DHB (100 μM), or sodium ferulate (100 μM) for 2 days. Then cells were washed for three times to remove α-CD3/α-CD28 antibodies and further incubated with metabolites and IL-2 (10 ng ml^−1) for 5 days. Thereafter, cells were collected for central memory CD8^+ T cells analysis. For CD8^+ T cells survival study, cells were activated with antigen peptide as above, following with thoroughly washing, and incubation in presence of IL-2 for 2 days. Metabolites were added during this incubation (arginine: 3 mM, 1 mM; 3-methylhistidine: 3 mM, 1 mM, 500 μM, 100 μM; N-acetylneuraminate: 100 μM; disodium sebacate: 100 μM; DHB: 100 μM, 50 μM, 20 μM; pantothenate: 100 μM; γ-aminobutyric acid: 100 μM; glycerol: 100 μM; AICAR: 100 μM). Then cells were further incubated in absence of both IL-2 and metabolites for 36 h to induce the apoptosis/dead. For Tcf1^+CD8^+ differentiation study, cells were activated with antigen peptide as above, followed by thoroughly washing, and incubation with metabolites in presence of IL-2 for 3 days. […] Tcf1^+CD8^+, CD44^+CD62L^+CD8^+ and survival (stained with Annexin V-APC and PI) T cells were detected via flow cytometry.

OT-I CD8+ T cells [7] = test: Tcf1+CD8+ differentiation of OT-I T cells with metabolites; assay type: cell-based, mice; conditions: day 6
Description: FIG. 3: a) OT-I CD8+ T cells were cultured with different metabolites in vitro as indicated, b,c) shown are the frequency of the Tcf1^+CD8+ T cells and the representative flow cytometry plots on day 6. Data represent the mean±s.e.m. (n=5).
as §4, with “days.” for “days. Metabolites were added during this incubation (arginine: 3 mM, 1 mM; 3-methylhistidine: 3 mM, 1 mM, 500 μM, 100 μM; N-acetylneuraminate: 100 μM; disodium sebacate: 100 μM; DHB: 100 μM, 50 μM, 20 μM; pantothenate: 100 μM; γ-aminobutyric acid: 100 μM; glycerol: 100 μM; AICAR: 100 μM). Then cells were further incubated in absence of both IL-2 and metabolites for 36 h to induce the apoptosis/dead. For Tcf1^+CD8^+ differentiation study, cells were activated with antigen peptide as above, followed by thoroughly washing, and incubation with metabolites in presence of IL-2 for 3 days.”

OT-I CD8+ T cells [8] = test: CD8+ T cell survival upon IL-2 withdrawal (Annexin V/PI); assay type: cell-based, mice; conditions: dependent on the dose of metabolites
Description: FIG. 4: a) OT-I CD8+ T cells were cultured with different metabolites in vitro as indicated, b,c) shown are the level of survival CD8+ T cells (Annexin V^−PI^−) as well as the representative flow cytometry plots on day 5.5. Data represent the mean±s.e.m. (n=5).
as §4, with “days.” for “days. Metabolites were added during this incubation (arginine: 3 mM, 1 mM; 3-methylhistidine: 3 mM, 1 mM, 500 μM, 100 μM; N-acetylneuraminate: 100 μM; disodium sebacate: 100 μM; DHB: 100 μM, 50 μM, 20 μM; pantothenate: 100 μM; γ-aminobutyric acid: 100 μM; glycerol: 100 μM; AICAR: 100 μM). Then cells were further incubated in absence of both IL-2 and metabolites for 36 h to induce the apoptosis/dead. For Tcf1^+CD8^+ differentiation study, cells were activated with antigen peptide as above, followed by thoroughly washing, and incubation with metabolites in presence of IL-2 for 3 days.”

[9] = system: CT26 colon carcinoma cells; test: CT26 tumor model, oral prodrug #717 plus α-PD-1; assay type: in vivo, BALB/c mice; conditions: 2 mg per dose every other day starting day 8
Description: FIG. 10: BALB/c mice were s.c. inoculated with 1.5×10^5 CT26 colon carcinoma cells. The prodrug #717 (2 mg per dose) were orally administrated every other day starting day 8. 100 μg α-PD-1 was injected i.p. on days 11 and 16. Shown is the average tumor growth. Data represent the mean±s.e.m. (n=5).

## O=C(O)c1ccc(O)c(O)c1 [DHB, 3,4-dihydroxybenzoate]
[1]
  tumor growth in vivo: did not inhibit the tumor growth
OT-I CD8+ T cells [2]
  induction of central memory CD8+ T cells in the absence of dendritic cells: can also induce central memory CD8^+ T cells
[3]
  cell toxicity: low cell toxicity
[4]; intratumoral every other day (DHB 0.5 mg, 3-methylhistidine 1 mg per mouse) plus α-PD-1 i.p.
  systemic antitumor efficacy of α-PD-1 treatment and CT26 tumor growth: improved the systemic antitumor efficacy of α-PD-1 treatment and slowed down the CT26 tumors growth
[4]; intratumoral metabolite plus α-PD-1 i.p.
  tumor-free mice on day 70: 80%
[5]
  efficacy of α-PD-1 treatment: improved the efficacy of α-PD-1 treatment
OT-I CD8+ T cells [6]
  differentiation of CD44+CD62L+ central memory CD8+ T cells: significantly increased the differentiation
OT-I CD8+ T cells [7]
  frequency of Tcf1+CD8+ T cells: increased the frequency
OT-I CD8+ T cells [8]
  survival of activated CD8+ T cells: significantly increased the survival

## COC(=O)[C@H](Cc1cncn1C)NC(=O)OC(C)(C)C [Prodrug #717, methyl Na-(tert-butoxycarbonyl)-Np-methyl-L-histidinate]
[9]
  synergy with α-PD-1 against tumor growth in vivo: did not synergize
